Data as given in patent publication US20230192700A1, “PYRAZOLOPYRAZINES ACTING ON CANCERS VIA INHIBITION OF CDK12” (Bayer Aktiengesellschaft, priority 2020, published 2023).
Read-outs that look alike come from different tables or passages of the source.

Legend:
CDK12/CyclinK = target: T1, CDK12/CyclinK (Homo sapiens, UniProt Q9NYV4); test: CDK12/CycK high ATP kinase assay (TR-FRET); assay type: biochemical; settings: 2 mM ATP (high ATP); median; read-out: CDK12/CyclinK, 2 mM ATP (high ATP), IC50 - [mol/l] (median)
T1 construct: His-CDK12 (aa Q696-S1082); made in house; host or cells: Hi-5 insect cells (baculovirus co-infection with CycK and yeast CAK1)
Text: 2.2 CDK12/CycK high ATP Kinase Assay
In the context of the present invention, the term “IC50 CDK12 hATP” refers to the ICso values obtained according to the assay described in this section (2.2) herein below, i.e. the IC50 values for the inhibition of CDK12 at high ATP.
CDK12/CycK -inhibitory activity of compounds of the present invention at 2 millimol/L adenosine-tri-phosphate (ATP) was quantified employing the TR-FRET (TR-FRET=Time Resolved Fluorescence Energy Transfer) based CDK12/CycK activity inhibition assay as described in the following paragraphs.
A complex of human recombinant CDK12 and human recombinant CycK (both N-terminally His-tagged, expression and purification as described above) was used as enzyme. As substrate for the kinase reaction biotinylated peptide biotin-Ahx-KFELLPTPPLSPSRRSGL (C-terminus in amid form) was used which can be purchased e.g. form the company Biosyntan (Berlin-Buch, Germany).
For the assay 50 nanoL of a 100 fold concentrated solution of the test compound in DMSO was pipetted into either a black low volume 384 well microtiter plate or a black 1536 well microtiter plate (both Greiner Bio-One, Frickenhausen, Germany), 2 microL of a solution of CDK12/CycK in aqueous assay buffer [25 millimol/L HEPES pH 7.5, 20 millimol/L MgCl2, 5 millimol/L β-glycerophosphate, 2 millimol/L EGTA, 1.0 millimol/L dithiothreitol, 0.01% (v/v) Nonidet-P40 (Sigma), 0.01% (w/v) bovine serum albumin] were added and the mixture was incubated for 15 min at 22° C. to allow pre-binding of the test compounds to the enzyme before the start of the kinase reaction. Then the kinase reaction was started by the addition of 3 microL of a solution ATP (3.33 millimol/L=>final conc. in the 5 microL assay volume is 2 millimol/L) and substrate (1.67 micromol/L=>final conc. in the 5 microL assay volume is 1 micromol/L) in assay buffer and the resulting mixture was incubated for a reaction time of 60 min at 22° C. The concentration of CDK12/CycK was adjusted depending of the activity of the enzyme lot and was chosen appropriate to have the assay in the linear range, typical concentrations were about 0.75 nanomol/L. The reaction was stopped by the addition of 3 microL of a solution of TR-FRET detection reagents (125 nanomol/L streptavidine-XL665 [Cisbio Bioassays, Codolet, France] and 0.67 nanomol/L anti-Phospho-c-Myc (Ser 62) (E1J4K)-antibody from Cell Signalling [#13748] and 2 nanomol/L LANCE EU-W1024 labeled anti-rabbit IgG antibody [Perkin-Elmer, product no. 0083]) in an aqueous EDTA-solution (133 millimol/L EDTA, 0.27% (w/v) bovine serum albumin in 66.7 millimol/L HEPES pH 7.5).
The resulting mixture was incubated 1 h at 22° C. to allow the formation of complex between the phosphorylated biotinylated peptide and the detection reagents. Subsequently the amount of phosphorylated substrate was evaluated by measurement of the resonance energy transfer from the Eu-chelate to the streptavidine-XL. Therefore, the fluorescence emissions at 620 nm and 665 nm after excitation at 350 nm was measured in a TR-FRET reader, e.g. a Pherastar FS (BMG Labtechnologies, Offenburg, Germany) or a Viewlux (Perkin-Elmer). The ratio of the emissions at 665 nm and at […] was taken as the measure for the amount of phosphorylated substrate. The data were normalised (enzyme reaction without inhibitor=0% inhibition, all other assay components but no enzyme=100% inhibition).

[1] = system: MDA-MB-231 human breast cancer cells; test: Proliferation assay MDA-MB-231 (crystal violet); assay type: cell-based; settings: MDA-MB-231 cells, 4 days, median, read-out: Prolif-MDA MB231 IC50 - [mol/l] (median)
Experimental: 4. Proliferation assay: MDA-MB-231, CAL-120
Human tumour cells were originally obtained from the American Type Culture Collection (ATCC), or from the Deutsche Sammlung von Mikroorganismen and Zellkulturen (DSMZ, German Collection of Microorganisms and Cell Cultures). Cultivated tumour cells (CAL-120, human breast adenocarcinoma cells, DSMZ ACC-459; MDA-M B-231, human breast cancer cells, ATCC HTB-26) were plated at a density of 4,000 cells/well in a 96-well multititer plate in 200 microL of their respective growth medium supplemented 10% fetal calf serum. After 24 hours, the cells of one plate (zero-point plate) were stained with crystal violet (see below), while the medium of the other plates was supplemented with the test substances in various concentrations (0 micromol/L, as well as in the range of 0.01-10 micromol/L; the final concentration of the solvent dimethyl sulfoxide was adjusted to 0.1%) using a Tecan HP D300 Digital Dispenser. The cells were incubated for 4 days in the presence of test substances. Cell proliferation was determined by staining the cells with crystal violet: the cells were fixed by adding 20 microL/measuring point of an 11% glutaric aldehyde solution for 15 minutes at room temperature. After three washing cycles of the fixed cells with water, the plates were dried at room temperature. The cells were stained by adding 100 microL/measuring point of a 0.1% crystal violet solution (pH 3.0). After three washing cycles of the stained cells with water, the plates were dried at room temperature. The dye was dissolved by adding 100 microL/measuring point of a 10% acetic acid solution. The extinction was determined by photometry at a wavelength of 595 nm. The change of cell number, in percent, was calculated by normalization of the measured values to the extinction values of the zero-point plate(=0%) and the extinction of the untreated (0 μM) cells(=100%). The IC50 values (inhibitory concentration at 50% of maximal effect) were determined by means of a 4 parameter fit.

T1 sequence (Q9NYV4 with tags, fused parts or gaps): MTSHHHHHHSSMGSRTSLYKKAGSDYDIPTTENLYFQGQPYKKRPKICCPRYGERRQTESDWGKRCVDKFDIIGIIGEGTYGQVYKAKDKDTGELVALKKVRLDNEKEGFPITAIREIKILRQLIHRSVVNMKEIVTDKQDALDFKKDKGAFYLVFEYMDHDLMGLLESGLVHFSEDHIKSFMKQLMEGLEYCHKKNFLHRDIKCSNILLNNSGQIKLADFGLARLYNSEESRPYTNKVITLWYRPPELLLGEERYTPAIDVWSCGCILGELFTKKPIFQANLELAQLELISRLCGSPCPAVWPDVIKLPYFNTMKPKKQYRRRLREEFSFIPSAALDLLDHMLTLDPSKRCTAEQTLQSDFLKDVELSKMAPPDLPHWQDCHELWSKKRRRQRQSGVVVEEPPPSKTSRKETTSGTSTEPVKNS
T1 sequence (O75909 with tags, fused parts or gaps partner limits assumed): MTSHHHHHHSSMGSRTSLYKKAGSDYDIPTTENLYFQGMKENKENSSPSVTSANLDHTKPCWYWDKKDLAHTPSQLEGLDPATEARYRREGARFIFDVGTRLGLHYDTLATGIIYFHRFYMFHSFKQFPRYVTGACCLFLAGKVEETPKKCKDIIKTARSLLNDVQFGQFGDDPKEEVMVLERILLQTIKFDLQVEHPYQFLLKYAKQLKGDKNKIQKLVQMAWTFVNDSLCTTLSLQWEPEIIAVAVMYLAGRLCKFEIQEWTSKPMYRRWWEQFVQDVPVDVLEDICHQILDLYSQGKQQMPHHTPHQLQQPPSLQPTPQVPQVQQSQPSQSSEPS

| SMILES | IC50 (CDK12/CyclinK) [nM] | IC50 ([1]; Homo sapiens, MDA-MB-231, 96 h) [nM] | IC50 [1] [nM] |
| --- | --- | --- | --- |
| CN1CCC(n2nc(NCc3nc4cc(C(F)(F)F)ccc4[nH]3)c3ncc(C4CC4)nc32)CC1 [Example 25, 6-cyclopropyl-1-(1-methylpiperidin-4-yl)-N-{[5-(trifluoromethyl)-1H-benzimidazol-2-yl]methyl}-1H-pyrazolo[3,4-b]pyrazin-3-amine] | 17300 | 5.07 |  |
| c1ccc2[nH]c(CNc3nn(C4C[C@H]5CC[C@@H](C4)O5)c4nc(C5CC5)cnc34)nc2c1 (stereo partly drawn) [Example 45, exo/endo-N-[(1H-benzimidazol-2-yl)methyl]-6-cyclopropyl-1-(8-oxabicyclo[3.2.1]octan-3-yl)-1H-pyrazolo[3,4-b]pyrazin-3-amine] |  | 16.8 |  |
| CC(C)(O)C1CC(n2nc(NCc3nc4ccccc4[nH]3)c3ncc(C4CC4)nc32)C1 (mixture of isomers) [Example 48, 2-[cis/trans-3-(3-{[(1H-benzimidazol-2-yl)methyl]amino}-6-cyclopropyl-1H-pyrazolo[3,4-b]pyrazin-1-yl)cyclobutyl]propan-2-ol] | 13700 | 66.1 |  |
| OCCn1nc(NCc2nc3ccccc3[nH]2)c2ncc(C3CC3)nc21 [Example 66, 2-(3-{[(1H-benzimidazol-2-yl)methyl]amino}-6-cyclopropyl-1H-pyrazolo[3,4-b]pyrazin-1-yl)ethan-1-ol] | > 20000 | 386 |  |
| c1ccc2[nH]c(CNc3nn(C4CCOC4)c4nc(C5CC5)cnc34)nc2c1 (racemic) [Example 10, (±)-N-[(1H-benzimidazol-2-yl)methyl]-6-cyclopropyl-1-[oxolan-3-yl]-1H-pyrazolo[3,4-b]pyrazin-3-amine] | > 20000 | 151 |  |
| O[C@H]1C[C@H](Cn2nc(NCc3nc4ccccc4[nH]3)c3ncc(C4CC4)nc32)C1 [Example 70, trans-3-[(3-{[(1H-benzimidazol-2-yl)methyl]amino}-6-cyclopropyl-1H-pyrazolo[3,4-b]pyrazin-1-yl)methyl]cyclobutan-1-ol] | > 20000 | 174 |  |
| Cc1cccc2[nH]c(CNc3nn(C4CCOCC4)c4nc(C5CC5)cnc34)nc12 [Example 33, 6-cyclopropyl-N-[(4-methyl-1H-benzimidazol-2-yl)methyl]-1-(oxan-4-yl)-1H-pyrazolo[3,4-b]pyrazin-3-amine] | > 20000 | 37 |  |
| CN1CCC(n2nc(NCc3nc4cc(Cl)ccc4[nH]3)c3ncc(C4CC4)nc32)CC1 [Example 22, N-[(5-chloro-1H-benzimidazol-2-yl)methyl]-6-cyclopropyl-1-(1-methylpiperidin-4-yl)-1H-pyrazolo[3,4-b]pyrazin-3-amine] | > 20000 | 8.02 |  |
| O[C@H]1CC[C@H](n2nc(NCc3nc4ccccc4[nH]3)c3ncc(C4CC4)nc32)CC1 [Example 50, trans-4-(3-{[(1H-benzimidazol-2-yl)methyl]amino}-6-cyclopropyl-1H-pyrazolo[3,4-b]pyrazin-1-yl)cyclohexan-1-ol] | 6170 | 15 |  |
| CC(C)(O)Cn1nc(NCc2nc3ccccc3[nH]2)c2ncc(C3CC3)nc21 [Example 69, 1-(3-{[(1H-benzimidazol-2-yl)methyl]amino}-6-cyclopropyl-1H-pyrazolo[3,4-b]pyrazin-1-yl)-2-methylpropan-2-ol] | > 10000 | 311 |  |
| O[C@H]1C[C@H](n2nc(NCc3nc4ccccc4[nH]3)c3ncc(C4CC4)nc32)C1 [Example 43, trans-3-(3-{[(1H-benzimidazol-2-yl)methyl]amino}-6-cyclopropyl-1H-pyrazolo[3,4-b]pyrazin-1-yl)cyclobutan-1-ol] |  | 62.2 |  |
| CC(C)(C)OC(=O)N1CCC(n2nc(NCc3nc4ccccc4[nH]3)c3ncc(C4CC4)nc32)CC1 [Example 11, tert-butyl 4-(3-{[(1H-benzimidazol-2-yl)methyl]amino}-6-cyclopropyl-1H-pyrazolo[3,4-b]pyrazin-1-yl)piperidine-1-carboxylate] | > 20000 | 176 |  |
| Cc1cnc2c(NCc3nc4ccccc4[nH]3)nn(C3CCN(C)CC3)c2n1 [Example 77, N-[(1H-benzimidazol-2-yl)methyl]-6-methyl-1-(1-methylpiperidin-4-yl)-1H-pyrazolo[3,4-b]pyrazin-3-amine] | > 20000 | 3000 |  |
| CN1CCC(n2nc(NCc3nc4ccccc4[nH]3)c3ncc(C4CC4)nc32)C1 (racemic) [Example 35, (±)-N-[(1H-benzimidazol-2-yl)methyl]-6-cyclopropyl-1-(1-methylpyrrolidin-3-yl)-1H-pyrazolo[3,4-b]pyrazin-3-amine] | > 20000 | 59.5 |  |
| Cc1c(Cl)ccc2[nH]c(CNc3nn(C4CCN(C)CC4)c4nc(C5CC5)cnc34)nc12 [Example 21, N-[(5-chloro-4-methyl-1H-benzimidazol-2-yl)methyl]-6-cyclopropyl-1-(1-methylpiperidin-4-yl)-1H-pyrazolo[3,4-b]pyrazin-3-amine] | > 20000 | 11.3 |  |
| CC(CCN(C)C)n1nc(NCc2nc3ccccc3[nH]2)c2ncc(C3CC3)nc21 (single isomer, unassigned) [Example 63, (+) or (−)-N-[(1H-benzimidazol-2-yl)methyl]-6-cyclopropyl-1-[4-(dimethylamino)butan-2-yl]-1H-pyrazolo[3,4-b]pyrazin-3-amine] | > 20000 |  | 1780 |
| COc1cccc2[nH]c(CNc3nn(C4CCN(C)CC4)c4nc(C5CC5)cnc34)nc12 [Example 2, 6-cyclopropyl-N-[(4-methoxy-1H-benzimidazol-2-yl)methyl]-1-(1-methylpiperidin-4-yl)-1H-pyrazolo[3,4-b]pyrazin-3-amine] | > 20000 | 10.8 |  |
| CC1CC(n2nc(NCc3nc4ccccc4[nH]3)c3ncc(C4CC4)nc32)CCO1 (racemic) [Example 44, (±)-cis/trans-N-[(1H-benzimidazol-2-yl)methyl]-6-cyclopropyl-1-(2-methyloxan-4-yl)-1H-pyrazolo[3,4-b]pyrazin-3-amine] |  | 37.9 |  |
